Test results: article PMC4390081 (Biochemistry, 2013)

Biological target: chlorite dismutase (DaCld) (Dechloromonas aromatica (nom. nud.), UniProt Q47CX0)
Assay: steady-state peroxidase assay
Assay type: biochemical

Sequence of chlorite dismutase (DaCld) (Q47CX0 35-282): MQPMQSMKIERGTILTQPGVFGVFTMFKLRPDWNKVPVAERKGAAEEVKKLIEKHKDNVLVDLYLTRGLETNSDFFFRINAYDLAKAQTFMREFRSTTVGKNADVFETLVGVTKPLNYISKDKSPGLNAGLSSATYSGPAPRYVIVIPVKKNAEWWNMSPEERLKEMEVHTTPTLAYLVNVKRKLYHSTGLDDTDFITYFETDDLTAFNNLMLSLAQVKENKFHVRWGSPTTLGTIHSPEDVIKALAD

kcat (S^-1): 2.8 s⁻¹
Compound: COc1ccccc1O [guaiacol, 2-methoxyphenol]
